Laboratory results as given in patent EP3797781A1, “USE OF EC-7072 AND SYNERGIC COMPOSITIONS THEREOF IN TREATMENT OF CHRONIC LYMPHOCYTIC LEUKEMIA” (priority 2019, dated 2021).

Columns and labels:
CD79A, CD79B and IgM = experiment: Surface expression of BCR complex components on leukemia cells by flow cytometry; assay type: cell-based, human; details: 200 nM, 8 hours; n = 5 - 6
From the text: To determine immune cell populations, the following antibodies were employed: anti-CD19-APC, anti-CD3-APC, anti-CD4-PerCP and anti-CD8-APC (all from Immunostep); anti-CD3-FITC and anti-CD56-APC (Cytognos); and anti-CD3-PE/Cy7 and anti-CD5-APC/Cy7 (Biolegend). The subsets of immune cells were identified as follows: T cells were defined as CD3^+CD56^-, NK cells were identified as CD3^-CD56^+ and healthy B cells as CD19^+. Leukemia cells were defined as CD19^+, as the percentage of healthy B cells (CD19^+CD5^-) detected in PBMCs from patients with CLL was less than 2% (data not shown). Additionally, antibodies from Biolegend were used to detect surface expression of CD79A (clone: HM47), CD79B (clone: CB3-1) and IgM (clone: MHM-88). Cells were analyzed in a BD FACS Canto II flow cytometer with FACS Diva software (Beckton Dickinson).
The inhibition of the tonic BCR pathway by EC-7072 was evaluated by: • (i) incubating PBMCs from patients with CLL, following treatment with 200 nM EC-7072, for 8 hours. Surface expression of CD79A (Figure 7A), CD79B (Figure 7B) and IgM (Figure 7C) in leukemia cells (n = 5 - 6) was assessed by flow cytometry and the MFI was normalized to the control (DMSO) condition; • (ii) incubating isolated leukemia cells from patients with CLL (n = 10), following treatment with EC-7072 (200 nM), for 8 hours. […]

BCR signaling pathway = experiment: Phosphoflow of BCR signaling nodes in isolated leukemia cells; assay type: cell-based, human
Procedure: Protein phosphorylation levels were evaluated by phosphoflow. Briefly, isolated leukemia cells from patients with CLL were treated with 200 nM EC-7072 or DMSO for 8 or 12 hours. In some experiments, BCR signaling was activated with goat F(ab')2 anti-IgM antibody (10 µg/mL; SouthernBiotech) for 45 minutes. Right afterwards, cells were fixed with 1.8% paraformaldehyde for 10 minutes at RT and permeabilized with 90% ice-cold methanol for 25 minutes at 4 °C. Finally, cells were incubated with specific phospho-antibodies (p-SYK, p-BTK, p-ERK1/2 and p-H2AX from Biolegend, and p-PLCγ2, p-AKT, p-p65 NF-κB and p-STAT3 from BD Bioscience) for 30 minutes at RT and mean fluorescence intensity (MFI) was analyzed by flow cytometry.
The inhibition of the tonic BCR pathway by EC-7072 was evaluated by: • (i) incubating PBMCs from patients with CLL, following treatment with 200 nM EC-7072, for 8 hours. Surface expression of CD79A (Figure 7A), CD79B (Figure 7B) and IgM (Figure 7C) in leukemia cells (n = 5 - 6) was assessed by flow cytometry and the MFI was normalized to the control (DMSO) condition; • (ii) incubating isolated leukemia cells from patients with CLL (n = 10), following treatment with EC-7072 (200 nM), for 8 hours. Phosphorylation levels of p-SYK (Figure 7D), p-BTK (Figure 7E) and p-PLCy2 (Figure 7F) proteins and p-ERK1/2 (Figure 7G), p-AKT (Figure 7H), p-p65 NPκB (Figure 7I) and p-STAT3 (Figure 7J) were evaluated by phosphoflow and the MFI was normalized to the control (DMSO) from each individual patient; • (iii) incubating PBMCs from patients with CLL (n = 8), following treatment with EC-7072 (200 nM), for 8 hours. Viability was determined by DiOC6(3)/PI staining and normalized to the control (DMSO) condition for each individual patient to obtain the mean percentage of viable [DiOC6(3)^+] cells (Figure 7K); • (iv) incubating isolated CLL cells (n = 4) stimulated with CD40L (100 ng/mL) or IL-6 (40 ng/mL) for 15 minutes and detecting respective phosphorylation levels of p65 NF-κB (Figure 7L) and STAT3 (Figure 7M) by phosphoflow to obtain the mean MFI normalized to the control (DMSO) condition for each individual patient; • (v) incubating isolated leukemia cells from 3 patients with CLL, following treatment with 200 nM EC-7072, for 3, 8 and 12 hours. […]
The partial abrogation of EC-7072-induced cell death of primary CLL cells by activation of the BCR was evaluated by: • (i) incubating PBMCs from patients with CLL (n = 15), following treatment with EC-7072 (200 nM) in combination with α-IgM (10 µg/mL), for 24 hours. […]

## CO[C@@H]([C@@H]1Cc2cc3cc(O[C@H]4C[C@@H](O[C@H]5C[C@@H](O)[C@H](O)[C@@H](C)O5)[C@H](O)[C@@H](C)O4)c(C)c(O)c3c(O)c2C(=O)[C@H]1O[C@H]1C[C@@H](O[C@H]2C[C@@H](O[C@H]3C[C@](C)(O)[C@H](O)[C@@H](C)O3)[C@@H](O)[C@@H](C)O2)[C@H](O)[C@@H](C)O1)[C@@H](O)C(C)=O [EC-7072, mithramycin SK]
CD79A, CD79B and IgM
  CD79A CLL cell surface expression: unchanged
  CD79B and IgM CLL cell surface expression: significantly decreased
BCR signaling pathway; 200 nM, 8 hours, n = 10
  amounts of p-AKT: No marked changes
  levels of phosphorylated (p)-SYK, p-BTK and p-PLCγ2: significant reduction
  phosphorylation levels of ERK1/2, p65 NF-κB and STAT3: significant downregulation
BCR signaling pathway; EC-7072 200 nM 8 hours, then α-IgM (10 µg/mL) 15 minutes
  phosphorylation of ERK1/2, AKT, p65 NF-κB and STAT3 ensued by anti-IgM: not significantly reverted
